This is an account of results in patent US10544103B2, “5-HT2 antagonists” (ANAMAR AB, priority 2015, dated 2020).

The assay concerns the target T1, 5-HT2B receptor (Homo sapiens, UniProt P41595).
T1 construct: host or cells: CHO-K1
As to the kind of experiment: 5-HT2B receptor binding, 3H-LSD ligand displacement assay. Particulars: for inhibition at 0.001 µM: 0.001 uM compound; for inhibition at 0.01 µM: 0.01 uM compound; for inhibition at 0.1 µM: 0.1 uM compound; for inhibition at 1 µM: 1 uM compound; for inhibition at 10 µM: 10 uM compound. The method, then: 5-HT2B receptor binding (performed at Eurofins Panlabs Taiwan, Ltd.) to human receptor protein expressed in CHO-K1 cells was determined in a ligand displacement assay using ^3H-lysergic acid diethylamide (LSD) as radioligand and ketanserine as a standard reference compound. Data is presented as % displacement of radioligand at indicated compound concentrations, see Table 1 and Table 2.

T1 sequence (P41595 whole entry): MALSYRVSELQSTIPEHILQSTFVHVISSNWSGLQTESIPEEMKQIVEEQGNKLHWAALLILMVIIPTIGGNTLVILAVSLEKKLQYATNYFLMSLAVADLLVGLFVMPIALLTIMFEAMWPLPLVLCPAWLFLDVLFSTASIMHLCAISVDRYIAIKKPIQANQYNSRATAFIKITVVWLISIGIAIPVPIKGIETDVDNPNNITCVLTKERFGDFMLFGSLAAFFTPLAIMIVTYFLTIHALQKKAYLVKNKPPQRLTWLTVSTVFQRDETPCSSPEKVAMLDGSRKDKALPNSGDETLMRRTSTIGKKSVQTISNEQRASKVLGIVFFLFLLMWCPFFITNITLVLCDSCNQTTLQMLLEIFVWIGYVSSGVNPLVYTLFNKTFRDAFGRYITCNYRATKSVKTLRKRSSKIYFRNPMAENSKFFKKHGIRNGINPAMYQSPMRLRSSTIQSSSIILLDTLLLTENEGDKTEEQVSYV

With `COc1ccccc1C1=NN(C(=N)NCC(F)(F)C(F)(F)C(F)(F)F)CC1C` (stereo not drawn) [Example 92, N-(2,2,3,3,4,4,4-Heptafluorobutyl)-3-(2-methoxyphenyl)-4-methyl-4,5-dihydro-1H-pyrazole-1-carboximidamide], the inhibition – broadly, the relative decrease from the control value, in per cent – at 0.001 µM is -3%; the inhibition at 0.01 µM amounted to 22%; the inhibition at 0.1 µM is 78%.
In the same order, the values of `CC1CN(C(=N)NCC(F)(F)F)N=C1c1ccccc1O` (stereo not drawn) [Example 95, 3-(2-Hydroxyphenyl)-4-methyl-N-(2,2,2-trifluoroethyl)-4,5-dihydro-1H-pyrazole-1-carboximidamide] are 12%, 70% and 96%.
On to `COc1c(F)cccc1C1=NN(C(=N)N)CC1C` (stereo not drawn) [Example 47, 3-(3-Fluoro-2-methoxyphenyl)-4-methyl-4,5-dihydro-1H-pyrazole-1-carboximidamide], for which the inhibition at 0.01 µM is 15%, the inhibition at 0.1 µM amounted to 68% and the inhibition at 1 µM is 92%.
Turning to `COc1c(Cl)cccc1C1=NN(C(=N)Nc2ccc(Cl)cc2)CC1C` (stereo not drawn) [Example 110, 3-(3-Chloro-2-methoxyphenyl)-N-(4-chlorophenyl)-4-methyl-4,5-dihydro-1H-pyrazole-1-carboximidamide], the inhibition at 0.001 µM worked out at 41%, the inhibition at 0.01 µM was determined as 83% and the inhibition at 0.1 µM came out at 97%.
For `CC(C)c1ccccc1C1=NN(C(=N)N)CC1` [Example 8, 3-(2-Isopropylphenyl)-4,5-dihydro-1H-pyrazole-1-carboximidamide], the inhibition at 0.1 µM was found to be 80% and the inhibition at 1 µM was determined as 95%.
In the case of `CC1CN(C(=N)Nc2ccc(C(F)(F)F)cc2)N=C1c1ccccc1O` (stereo not drawn) [Example 99, 3-(2-Hydroxyphenyl)-4-methyl-N-(4-(trifluoromethyl)phenyl)-4,5-dihydro-1H-pyrazole-1-carboximidamide], the inhibition at 0.001 µM is 48%, the inhibition at 0.01 µM turned out to be 89% and the inhibition at 0.1 µM is 103%.
In the case of `CNC(=N)N1CC(C)C(c2ccccc2O)=N1` (stereo not drawn) [Example 40, 3-(2-Hydroxyphenyl)-N,4-dimethyl-4,5-dihydro-1H-pyrazole-1-carboximidamide], the inhibition at 0.001 µM was found to be 1%, the inhibition at 0.01 µM turned out to be 42%, the inhibition at 0.1 µM is 92% and the inhibition at 1 µM was determined as 99%.
As to `CC1CN(C(=N)N)N=C1c1cc(F)ccc1O` (stereo not drawn) [Example 46, 3-(5-Fluoro-2-hydroxyphenyl)-4-methyl-4,5-dihydro-1H-pyrazole-1-carboximidamide], the inhibition at 0.01 µM was determined as 22%, the inhibition at 0.1 µM worked out at 54% and the inhibition at 1 µM was 89%.
`CC1CN(C(=N)Nc2ccc(F)cc2)N=C1c1ccccc1O` (stereo not drawn) [Example 101, N-(4-Fluorophenyl)-3-(2-hydroxyphenyl)-4-methyl-4,5-dihydro-1H-pyrazole-1-carboximidamide]: the inhibition at 0.001 µM is 55%, the inhibition at 0.01 µM turned out to be 91% and the inhibition at 0.1 µM was 102%.
For `CC1CN(C(=N)NO)N=C1c1ccccc1O` (stereo not drawn) [Example 44, N-Hydroxy-3-(2-hydroxyphenyl)-4-methyl-4,5-dihydro-1H-pyrazole-1-carboximidamide], the inhibition at 0.001 µM stood at 12%, the inhibition at 0.01 µM was determined as 30%, the inhibition at 0.1 µM was 85% and the inhibition at 1 µM is 94%.
In the case of `CC1CN(C(=N)NC#N)N=C1c1cccc(Cl)c1O` (stereo not drawn) [Example 91, 3-(3-Chloro-2-hydroxyphenyl)-N-cyano-4-methyl-4,5-dihydro-1H-pyrazole-1-carboximidamide], the inhibition at 0.001 µM was -15%, the inhibition at 0.01 µM was 27% and the inhibition at 0.1 µM worked out at 74%.
For `CC1CN(C(=N)NCCc2ccccc2)N=C1c1ccccc1O` (stereo not drawn) [Example 65, 3-(2-hydroxyphenyl)-4-methyl-N-phenethyl-4,5-dihydro-1H-pyrazole-1-carboximidamide], the inhibition at 0.001 µM was found to be 48% and the inhibition at 0.01 µM stood at 89%.
Consider `C[C@H]1CN(C(=N)N)N=C1c1ccccc1O` (single isomer, unassigned) [Example 37], for which the inhibition at 0.01 µM is -1%, the inhibition at 0.1 µM was determined as 35%, the inhibition at 1 µM stood at 72% and the inhibition at 10 µM amounted to 99%.
For `Cc1c(C2=NN(C(=N)N)C(C)C2)sc2ccccc12` (stereo not drawn) [Example 29, 5-Methyl-3-(3-methylbenzo[b]thiophen-2-yl)-4,5-dihydro-1H-pyrazole-1-carboximidamide], the inhibition at 0.1 µM stood at 69% and the inhibition at 1 µM is 97%.
On to `COc1c(Cl)cccc1C1=NN(C(=N)NC2CCCCC2)CC1C` (stereo not drawn) [Example 84, 3-(3-Chloro-2-methoxyphenyl)-N-cyclohexyl-4-methyl-4,5-dihydro-1H-pyrazole-1-carboximidamide], for which the inhibition at 0.001 µM was 11%, the inhibition at 0.01 µM was found to be 63% and the inhibition at 0.1 µM came out at 94%.
In the same order, the values of `COc1c(Cl)cccc1C1=NN(C(=N)Nc2ccc(C(F)(F)F)cc2)CC1C` (stereo not drawn) [Example 112, 3-(3-Chloro-2-methoxyphenyl)-4-methyl-N-(4-(trifluoromethyl)phenyl)-4,5-dihydro-1H-pyrazole-1-carboximidamide] are 1%, 77% and 97%.
`COc1ccccc1C1=NN(C(=N)N)CC1C` (stereo not drawn) [Example 18, 3-(2-Methoxyphenyl)-4-methyl-4,5-dihydro-1H-pyrazole-1-carboximidamide]: the inhibition at 1 µM was found to be 89% and the inhibition at 10 µM came out at 101%.
In the case of `Cc1c(C2=NN(C(=N)N)C(C)C2)oc2ccccc12` (stereo not drawn) [Example 28, 5-Methyl-3-(3-methylbenzofuran-2-yl)-4,5-dihydro-1H-pyrazole-1-carboximidamide], the inhibition at 0.1 µM was determined as 63% and the inhibition at 1 µM came out at 95%.
Take `CC1CN(C(=N)Nc2ccc(Cl)cc2)N=C1c1cccc(Cl)c1O` (stereo not drawn) [Example 111, 3-(3-Chloro-2-hydroxyphenyl)-N-(4-chlorophenyl)-4-methyl-4,5-dihydro-1H-pyrazole-1-carboximidamide]: the inhibition at 0.001 µM was 80%, the inhibition at 0.01 µM was 99% and the inhibition at 0.1 µM was 101%.
In the same order, the values of `CC1CN(C(=N)Nc2ccc(Cl)cc2)N=C1c1ccccc1O` (stereo not drawn) [Example 103, N-(4-Chlorophenyl)-3-(2-hydroxyphenyl)-4-methyl-4,5-dihydro-1H-pyrazole-1-carboximidamide] are 42%, 90% and 99%.
With `CC1CN(C(=N)N)N=C1c1ccc(C(F)(F)F)cc1O` (stereo not drawn) [Example 69, 3-(2-Hydroxy-4-(trifluoromethyl)phenyl)-4-methyl-4,5-dihydro-1H-pyrazole-1-carboximidamide], the inhibition at 0.1 µM stood at 70% and the inhibition at 1 µM amounted to 97%.
The like results for `N=C(N)N1CCC(c2cccc3ccsc23)=N1` [Example 10, 3-(Benzo[b]thiophen-7-yl)-4,5-dihydro-1H-pyrazole-1-carboximidamide] were, in that order, 75% and 95%.
Turning to `COc1ccc(C2=NN(C(=N)N)CC2C)c(OC)c1` (stereo not drawn) [Example 66, 3-(2,4-Dimethoxyphenyl)-4-methyl-4,5-dihydro-1H-pyrazole-1-carboximidamide], the inhibition at 0.01 µM is 5%, the inhibition at 0.1 µM was 12% and the inhibition at 1 µM amounted to 41%.
Take `COc1ccccc1C1=NN(C(=N)Nc2ccc(C(F)(F)F)cc2)CC1C` (stereo not drawn) [Example 98, 3-(2-Methoxyphenyl)-4-methyl-N-(4-(trifluoromethyl)phenyl)-4,5-dihydro-1H-pyrazole-1-carboximidamide]: the inhibition at 0.001 µM came out at 5%, the inhibition at 0.01 µM is 41% and the inhibition at 0.1 µM was determined as 86%.
The like results for `COc1ccccc1C1=NN(C(=N)Nc2ccc(F)cc2)CC1C` (stereo not drawn) [Example 100, N-(4-Fluorophenyl)-3-(2-methoxyphenyl)-4-methyl-4,5-dihydro-1H-pyrazole-1-carboximidamide] were, in that order, 19%, 27% and 78%.
In the same order, the values of `CCCCNC(=N)N1CC(C)C(c2cccc(Cl)c2O)=N1` (stereo not drawn) [Example 79, N-Butyl-3-(3-chloro-2-hydroxyphenyl)-4-methyl-4,5-dihydro-1H-pyrazole-1-carboximidamide] are 79%, 91% and 94%.
The like results for `CC1CN(C(=N)NCC(F)(F)C(F)(F)C(F)(F)F)N=C1c1cccc(Cl)c1O` (stereo not drawn) [Example 107, 3-(3-Chloro-2-hydroxyphenyl)-N-(2,2,3,3,4,4,4-heptafluorobutyl)-4-methyl-4,5-dihydro-1H-pyrazole-1-carboximidamide] were, in that order, 51%, 91% and 100%.
As for `COc1ccc(C2=NN(C(=N)N)CC2)cc1` [Example 15, 3-(4-Methoxyphenyl)-4,5-dihydro-1H-pyrazole-1-carboximidamide, reference compound], the inhibition at 1 µM was 13% and the inhibition at 10 µM was 56%.
Consider `COc1cc(C(F)(F)F)ccc1C1=NN(C(=N)N)CC1C` (stereo not drawn) [Example 68, 3-(2-Methoxy-4-(trifluoromethyl)phenyl)-4-methyl-4,5-dihydro-1H-pyrazole-1-carboximidamide], for which the inhibition at 0.1 µM turned out to be 32% and the inhibition at 1 µM turned out to be 86%.
Turning to `COc1ccccc1C1=NN(C(=N)NCC(F)(F)F)CC1C` (stereo not drawn) [Example 94, 3-(2-Methoxyphenyl)-4-methyl-N-(2,2,2-trifluoroethyl)-4,5-dihydro-1H-pyrazole-1-carboximidamide], the inhibition at 0.001 µM was -12%, the inhibition at 0.01 µM is 17% and the inhibition at 0.1 µM came out at 77%.
